The numbers were not newly measured in patent US20070149500A1, “Compounds, compositions, and methods” (priority 2003, published 2007), which cites them from elsewhere.

The data set has as its system A549 cells. The following applies: data provided by National Cancer Institute.

In general, GI50 refers to the concentration giving 50% growth inhibition. On to `O=c1[nH]cc(F)c(=O)[nH]1` [5-fluorouracil], for which the GI50 was 1000 nM.

For the compound `CC(=O)O[C@H]1C(=O)[C@@]2(C)[C@H]([C@H](OC(=O)c3ccccc3)[C@]3(O)C[C@H](OC(=O)[C@H](O)[C@@H](NC(=O)c4ccccc4)c4ccccc4)C(C)=C1C3(C)C)[C@]1(OC(C)=O)CO[C@@H]1C[C@@H]2O` [paclitaxel], the concentration for 50% growth inhibition (GI50) was 4 nM.

As for `NC(=O)NO` [hydroxyurea], the GI50 is 500000 nM.
